Test results reported in PubChem BioAssay AID270 (DTP/NCI, 2004).
Several values for one entry are separate records, joined by “and”; a condition that tells them apart may be missing. Identical values can stand only once. Records with an inconclusive call do not appear.

Test system: BDF1 mice, s.c. Lewis lung carcinoma, T/C %
Experiment: NCI In Vivo Anticancer Drug Screen. Data for tumor model Lewis Lung Carcinoma (subcutaneous) in B6D2F1 (BDF1) mice
Experimental: The antitumor activity of compounds was measured in mice bearing transplantable tumors. Survival or tumor size were measured and the results are expressed as the measurement made in the treated group (T) divided by the measurement made in the vehicle treated control group (C). The tumor model used in this assay is Lewis Lung Carcinoma (subcutaneous) in B6D2F1 (BDF1) mice

[1] = endpoint: mean tumor weight, dose: 50.0 mg/kg/injection, schedule: Q01DX011 (ip), vehicle: saline, higher = larger tumour

## O=P1(NCCCl)OCCCN1CCCl (stereo not given)
endpoint: mean tumor weight, dose: 12.5 mg/kg/injection, schedule: Q01DX011 (ip), vehicle: saline, higher = larger tumour
  T/C: 114 % of control
endpoint: mean tumor weight, dose: 25.0 mg/kg/injection, schedule: Q01DX011 (ip), vehicle: saline, higher = larger tumour
  T/C: 14 % of control
[1]
  T/C: 2 % of control
endpoint: median survival time, dose: 25.0 mg/kg/injection, schedule: Q01DX009 (ip), vehicle: Klucel (hydroxypropylcellulose) (HPC), higher = longer survival
  T/C: 100 % of control
endpoint: median survival time, dose: 50.0 mg/kg/injection, schedule: Q01DX001 (ip), vehicle: saline, higher = longer survival
  T/C: 106 % of control
endpoint: median survival time, dose: 50.0 mg/kg/injection, schedule: Q01DX009 (ip), vehicle: Klucel (hydroxypropylcellulose) (HPC), higher = longer survival
  T/C: 150 % of control
endpoint: median survival time, dose: 100.0 mg/kg/injection, schedule: Q01DX001 (ip), vehicle: saline, higher = longer survival
  T/C: 124 % of control
endpoint: median survival time, dose: 200.0 mg/kg/injection, schedule: Q01DX001 (ip), vehicle: saline, higher = longer survival
  T/C: 200 % of control and 243 % of control
endpoint: median survival time, dose: 400.0 mg/kg/injection, schedule: Q01DX001 (ip), vehicle: saline, higher = longer survival
  T/C: 200 % of control and 243 % of control
endpoint: median survival time, dose: 800.0 mg/kg/injection, schedule: Q01DX001 (ip), vehicle: saline, higher = longer survival
  T/C: 243 % of control

## O=c1[nH]cnc2n[nH]nc12
endpoint: mean tumor weight, dose: 49.0 mg/kg/injection, schedule: Q01DX011 (ip), vehicle: other, higher = larger tumour
  T/C: 76 % of control
endpoint: mean tumor weight, dose: 98.0 mg/kg/injection, schedule: Q01DX011 (ip), vehicle: other, higher = larger tumour
  T/C: 64 % of control
endpoint: mean tumor weight, dose: 147.0 mg/kg/injection, schedule: Q01DX011 (ip), vehicle: other, higher = larger tumour
  T/C: 55 % of control
endpoint: mean tumor weight, dose: 220.0 mg/kg/injection, schedule: Q01DX011 (ip), vehicle: other, higher = larger tumour
  T/C: 67 % of control

## O=C(CP(=O)(O)O)NC(CC(=O)OCc1ccccc1)C(=O)OCc1ccccc1 (stereo not given)
endpoint: median survival time, dose: 50.0 mg/kg/injection, schedule: Q01DX004 (ip), vehicle: saline, higher = longer survival
  T/C: 114 % of control and 120 % of control
endpoint: median survival time, dose: 100.0 mg/kg/injection, schedule: Q01DX004 (ip), vehicle: saline, higher = longer survival
  T/C: 120 % of control and 118 % of control
endpoint: median survival time, dose: 200.0 mg/kg/injection, schedule: Q01DX004 (ip), vehicle: saline, higher = longer survival
  T/C: 109 % of control
endpoint: median survival time, dose: 400.0 mg/kg/injection, schedule: Q01DX004 (ip), vehicle: saline, higher = longer survival
  T/C: 109 % of control
endpoint: median survival time, dose: 800.0 mg/kg/injection, schedule: Q01DX004 (ip), vehicle: saline, higher = longer survival
  T/C: 116 % of control

## Nc1nc2nc[nH]c2c(=O)[nH]1
endpoint: mean tumor weight, dose: 6.25 mg/kg/injection, schedule: Q01DX010 (ip), vehicle: saline, higher = larger tumour
  T/C: 73 % of control
endpoint: mean tumor weight, dose: 12.5 mg/kg/injection, schedule: Q01DX010 (ip), vehicle: saline, higher = larger tumour
  T/C: 71 % of control
endpoint: mean tumor weight, dose: 25.0 mg/kg/injection, schedule: Q01DX010 (ip), vehicle: saline, higher = larger tumour
  T/C: 96 % of control
endpoint: mean tumor weight, dose: 50.0 mg/kg/injection, schedule: Q01DX010 (ip), vehicle: saline, higher = larger tumour
  T/C: 71 % of control
[1]
  T/C: 82 % of control
endpoint: mean tumor weight, dose: 100.0 mg/kg/injection, schedule: Q01DX011 (ip), vehicle: saline, higher = larger tumour
  T/C: 80 % of control

## COC(C(=O)C(O)C(C)O)C1Cc2cc3cc(OC4CC(OC(C)=O)C(OC5CC(O)C(OC)C(C)O5)C(C)O4)cc(O)c3c(O)c2C(=O)C1OC1CC(OC2CC(OC3CC(C)(O)C(OC(=O)C(C)C)C(C)O3)C(O)C(C)O2)C(O)C(C)O1 (stereo not given)
endpoint: median survival time, dose: 0.5 mg/kg/injection, schedule: Q01DX009 (ip), vehicle: saline with Tween-80, higher = longer survival
  T/C: 97 % of control
endpoint: median survival time, dose: 2.0 mg/kg/injection, schedule: Q01DX009 (ip), vehicle: saline with Tween-80, higher = longer survival
  T/C: 94 % of control

## CCCCC[C@H](O)/C=C/[C@@H]1[C@@H](C/C=C\CCCC(=O)O)[C@@H](O)C[C@H]1O
endpoint: median survival time, dose: 2.5 mg/kg/injection, schedule: Q04DX003 (ip), vehicle: saline, higher = longer survival
  T/C: 118 % of control
endpoint: median survival time, dose: 5.0 mg/kg/injection, schedule: Q04DX003 (ip), vehicle: saline, higher = longer survival
  T/C: 105 % of control
endpoint: median survival time, dose: 10.0 mg/kg/injection, schedule: Q04DX003 (ip), vehicle: saline, higher = longer survival
  T/C: 95 % of control
endpoint: median survival time, dose: 20.0 mg/kg/injection, schedule: Q04DX003 (ip), vehicle: saline, higher = longer survival
  T/C: 118 % of control
endpoint: median survival time, dose: 40.0 mg/kg/injection, schedule: Q04DX003 (ip), vehicle: saline, higher = longer survival
  T/C: 87 % of control
endpoint: median survival time, dose: 80.0 mg/kg/injection, schedule: Q04DX003 (ip), vehicle: saline, higher = longer survival
  T/C: 93 % of control
endpoint: median survival time, dose: 160.0 mg/kg/injection, schedule: Q04DX003 (ip), vehicle: saline, higher = longer survival
  T/C: 87 % of control
endpoint: median survival time, dose: 320.0 mg/kg/injection, schedule: Q04DX003 (ip), vehicle: saline, higher = longer survival
  T/C: 106 % of control
